Measured values: patent publication US12479849B2, “EGFR inhibitors for the treatment of cancer” (Hoffmann-La Roche Inc., priority 2019, dated 2025)
Where a name gives a salt, the structure may show the parent alone.

Biological target: T1, EGFR TMLRCS (Homo sapiens, UniProt P00533, C797S/L858R/T790M)
T1 construct: host or cells: BaF3-TMLRCS (Ba/F3 cells, kept under puromycin selection)
Assay: HTRF Phospho EGFR TMLRCS Assay (Cellular)
Type: cell-based
Details: BaF3-TMLRCS cell line, 4 hours incubation, Phospho-EGFR HTRF readout
Procedure: HTRF Phospho EGFR TMLRCS Assay (Cellular)
BaF3-TMLRCS cell line were obtained from Crownbio (San Diego, CA, USA). Cells were maintained at 37° C., 5% CO2 in RPMI ATCC (Gibco 31870)+2 mM Glutamine+0.5 μg/ml Puromycin supplemented with 10% fetal bovine serum (FBS) (Gibco).
Cells are transferred as above to Greiner Bio-One, Nr. 784-08 micro-titerplate at 20000 cells/well in 12.5 μl of growth medium/well after the plates had been pre-filled with 12.5 nl of DMSO solutions of the to be tested compounds (in dose response) or DMSO only. After spinning the plates at 300×g for 30 seconds the cells were incubated for 4 hours at 37 C, 5% CO2, 95% humidity. The cells were lysed by adding to the compound mix 4 μl/well of the supplemented lysis buffer (Cis-bio, Phospho-EGFR HTRF kit, 64EG1PEH), followed by incubation for 30 min at room temperature with shaking (400 rpm). The plates were then frozen and stored overnight at −80 C. On the next day and after thawing the plates, 4 μl of a mixture of anti-Phospho-EGFR Cryptate and of anti-Phospho-EGFR-d2 antibody solutions prepared in the supplied detection buffer was added to each well. The lidded plates were then incubated for 4 h at room temperature before reading the fluorescence emission at 616 and 665 nm using an Envision reader (Perkin Elmer). Data was analyzed in similar fashion as above using the normalized ratio of the 665 to 616 signals multiplied by 10000.

IC50 | Molecule
13 nM | 2-(4,7-Dichloro-6-(4-((3S,4S)-3-fluoro-1-(2-methoxyethyl)piperidin-4-yl)phenyl)-2H-indazol-2-yl)-2-((R)-6-fluoro-6,7-dihydro-5H-pyrrolo[1,2-c]imidazol-1-yl)-N-(thiazol-2-yl)acetamide OR 2-(4,7-dichloro-6-(4-((3R,4R)-3-fluoro-1-(2-methoxyethyl)piperidin-4-yl)phenyl)-2H-indazol-2-yl)-2-((R)-6-fluoro-6,7-dihydro-5H-pyrrolo[1,2-c]imidazol-1-yl)-N-(thiazol-2-yl)acetamide [Example 56]
6 nM | O=C(Nc1nccs1)C(c1ncn2c1C[C@@H](F)C2)n1cc2c(Cl)cc(-c3ccc(N4CCOCC4)nc3)c(Cl)c2n1 (mixture of isomers) [Example 29, 2-[4,7-Dichloro-6-(6-morpholin-4-ylpyridin-3-yl)indazol-2-yl]-2-[rac-(6R)-6-fluoro-6,7-dihydro-5H-pyrrolo[1,2-c]imidazol-1-yl]-N-(1,3-thiazol-2-yl)acetamide]
33 nM | O=C(Nc1nccs1)C(c1ncn2c1C[C@@H](F)C2)n1cc2c(Cl)cc(-c3ccc(C4CCNCC4)cc3)c(Cl)c2n1 (mixture of isomers) [Example 30, 2-[4,7-Dichloro-6-(4-piperidin-4-ylphenyl)indazol-2-yl]-2-[rac-(6R)-6-fluoro-6,7-dihydro-5H-pyrrolo[1,2-c]imidazol-1-yl]-N-(1,3-thiazol-2-yl)acetamide hydrochloride]
10 nM | CCN1CCC(c2ccc(-c3cc(Cl)c4cn(C(C(=O)Nc5nccs5)c5ncn6c5C[C@@H](F)C6)nc4c3Cl)cc2)CC1 (mixture of isomers) [Example 31, 2-[4,7-Dichloro-6-[4-(1-ethylpiperidin-4-yl)phenyl]indazol-2-yl]-2-[rac-(6R)-6-fluoro-6,7-dihydro-5H-pyrrolo[1,2-c]imidazol-1-yl]-N-(1,3-thiazol-2-yl)acetamide]
6 nM | CN(C)CCOc1ccc(-c2cc(Cl)c3cn(C(C(=O)Nc4nccs4)c4ncn5c4C[C@@H](F)C5)nc3c2Cl)cc1 (mixture of isomers) [Example 34, 2-[4,7-Dichloro-6-[4-[2-(dimethylamino)ethoxy]phenyl]indazol-2-yl]-2-[rac-(6R)-6-fluoro-6,7-dihydro-5H-pyrrolo[1,2-c]imidazol-1-yl]-N-(1,3-thiazol-2-yl)acetamide]
9 nM | N#Cc1cc(-c2cc(Cl)c3cn(C(C(=O)Nc4nccs4)c4ncn5c4C[C@@H](F)C5)nc3c2Cl)ccc1N1CCOCC1 (mixture of isomers) [Example 36, rac-2-(4,7-Dichloro-6-(3-cyano-4-morpholinophenyl)-2H-indazol-2-yl)-2-((R)-6-fluoro-6,7-dihydro-5H-pyrrolo[1,2-c]imidazol-1-yl)-N-(thiazol-2-yl)acetamide]
10 nM | CCN1CC[C@@H](c2ccc(-c3cc(Cl)c4cn(C(C(=O)Nc5nccs5)c5ncn6c5C[C@@H](F)C6)nc4c3Cl)cc2)[C@H](F)C1 (mixture of isomers) [Example 38, 2-[4,7-Dichloro-6-[4-[rac-(3S,4S)-1-ethyl-3-fluoro-4-piperidyl]phenyl]indazol-2-yl]-2-[(6R)-6-fluoro-6,7-dihydro-5H-pyrrolo[1,2-c]imidazol-1-yl]-N-thiazol-2-yl-acetamide OR 2-[4,7-Dichloro-6-[4-[rac-(3R,4R)-1-ethyl-3-fluoro-4-piperidyl]phenyl]indazol-2-yl]-2-[(6R)-6-fluoro-6,7-dihydro-5H-pyrrolo[1,2-c]imidazol-1-yl]-N-thiazol-2-yl-acetamide]
4 nM | O=C(Nc1nccs1)C(c1ncn2c1C[C@@H](F)C2)n1cc2c(Cl)cc(-c3ccc(N4CCC(O)CC4)cc3)c(Cl)c2n1 (mixture of isomers) [Example 39, rac-2-(4,7-Dichloro-6-(4-(4-hydroxypiperidin-1-yl)phenyl)-2H-indazol-2-yl)-2-((R)-6-fluoro-6,7-dihydro-5H-pyrrolo[1,2-c]imidazol-1-yl)-N-(thiazol-2-yl)acetamide]
10 nM | CN(C)CCN(C)c1ccc(-c2cc(Cl)c3cn(C(C(=O)Nc4nccs4)c4ncn5c4C[C@@H](F)C5)nc3c2Cl)cc1 (mixture of isomers) [Example 41, rac-2-(4,7-Dichloro-6-(4-((2-(dimethylamino)ethyl)(methyl)amino)phenyl)-2H-indazol-2-yl)-2-((R)-6-fluoro-6,7-dihydro-5H-pyrrolo[1,2-c]imidazol-1-yl)-N-(thiazol-2-yl)acetamide]
8 nM | O=C(Nc1nccs1)C(c1ncn2c1C[C@@H](F)C2)n1cc2c(Cl)cc(-c3ccc(CCCN4CCC(CO)CC4)cc3)c(Cl)c2n1 (mixture of isomers) [Example 47, rac-2-(4,7-Dichloro-6-(4-(3-(4-(hydroxymethyl)piperidin-1-yl)propyl)phenyl)-2H-indazol-2-yl)-2-((R)-6-fluoro-6,7-dihydro-5H-pyrrolo[1,2-c]imidazol-1-yl)-N-(thiazol-2-yl)acetamide]
8 nM | CN(C)Cc1ccc(-c2cc(Cl)c3cn(C(C(=O)Nc4nccs4)c4ncn5c4C[C@@H](F)C5)nc3c2Cl)cc1 (mixture of isomers) [Example 48, rac-2-(4,7-Dichloro-6-(4-((dimethylamino)methyl)phenyl)-2H-indazol-2-yl)-2-((R)-6-fluoro-6,7-dihydro-5H-pyrrolo[1,2-c]imidazol-1-yl)-N-(thiazol-2-yl)acetamide]
8 nM | CN(C)Cc1ccc(-c2cc(Cl)c3cn(C(C(=O)Nc4nccs4)c4ncn5c4C[C@@H](F)C5)nc3c2Cl)cc1F (mixture of isomers) [Example 49, rac-2-(4,7-Dichloro-6-(4-((dimethylamino)methyl)-3-fluorophenyl)-2H-indazol-2-yl)-2-((R)-6-fluoro-6,7-dihydro-5H-pyrrolo[1,2-c]imidazol-1-yl)-N-(thiazol-2-yl)acetamide]
12 nM | O=C(Nc1nccs1)C(c1ncn2c1C[C@@H](F)C2)n1cc2c(Cl)cc(-c3ccc(C45CC(CN6CCC(CO)CC6)(C4)C5)cc3)c(Cl)c2n1 (mixture of isomers) [Example 50, rac-2-(4,7-Dichloro-6-(4-(3-((4-(hydroxymethyl)piperidin-1-yl)methyl)bicyclo[1.1.1]pentan-1-yl)phenyl)-2H-indazol-2-yl)-2-((R)-6-fluoro-6,7-dihydro-5H-pyrrolo[1,2-c]imidazol-1-yl)-N-(thiazol-2-yl)acetamide]
10 nM | O=C(Nc1nccs1)C(c1ncn2c1C[C@@H](F)C2)n1cc2c(Cl)cc(-c3ccc(CCN4CCC(CO)CC4)cc3)c(Cl)c2n1 (mixture of isomers) [Example 51, rac-2-(4,7-Dichloro-6-(4-(2-(4-(hydroxymethyl)piperidin-1-yl)ethyl)phenyl)-2H-indazol-2-yl)-2-((R)-6-fluoro-6,7-dihydro-5H-pyrrolo[1,2-c]imidazol-1-yl)-N-(thiazol-2-yl)acetamide]
6 nM | O=C(Nc1nccs1)C(c1ncn2c1C[C@@H](F)C2)n1cc2c(Cl)cc(-c3ccc(CCN4CCC(CO)C4)cc3)c(Cl)c2n1 (mixture of isomers) [Example 52, rac-2-(4,7-Dichloro-6-(4-(2-(3-(hydroxymethyl)pyrrolidin-1-yl)ethyl)phenyl)-2H-indazol-2-yl)-2-((R)-6-fluoro-6,7-dihydro-5H-pyrrolo[1,2-c]imidazol-1-yl)-N-(thiazol-2-yl)acetamide]
5 nM | O=C(Nc1nccs1)C(c1ncn2c1C[C@@H](F)C2)n1cc2c(Cl)cc(-c3ccc(CN4CCC(CO)CC4)cc3)c(Cl)c2n1 (mixture of isomers) [Example 53, rac-2-(4,7-Dichloro-6-(4-04-(hydroxymethyl)piperidin-1-yl)methyl)phenyl)-2H-indazol-2-yl)-2-((R)-6-fluoro-6,7-dihydro-5H-pyrrolo[1,2-c]imidazol-1-yl)-N-(thiazol-2-yl)acetamide]
7 nM | O=C(Nc1nccs1)C(c1ncn2c1C[C@@H](F)C2)n1cc2c(Cl)cc(-c3ccc(CCCN4CCC(O)CC4)cc3)c(Cl)c2n1 (mixture of isomers) [Example 57, rac-2-(4,7-Dichloro-6-(4-(3-(4-hydroxypiperidin-1-yl)propyl)phenyl)-2H-indazol-2-yl)-2-((R)-6-fluoro-6,7-dihydro-5H-pyrrolo[1,2-c]imidazol-1-yl)-N-(thiazol-2-yl)acetamide]
5 nM | O=C(Nc1nccs1)C(c1ncn2c1C[C@@H](F)C2)n1cc2c(Cl)cc(-c3ccc(CN4CCC(O)CC4)cc3)c(Cl)c2n1 (mixture of isomers) [Example 58, rac-2-(4,7-Dichloro-6-(4-((4-hydroxypiperidin-1-yl)methyl)phenyl)-2H-indazol-2-yl)-2-((R)-6-fluoro-6,7-dihydro-5H-pyrrolo[1,2-c]imidazol-1-yl)-N-(thiazol-2-yl)acetamide]

Molecule | IC50
CCN1CC[C@H](c2ccc(-c3cc(Cl)c4cn(C(C(=O)Nc5nccs5)c5ncn6c5C[C@@H](F)C6)nc4c3Cl)cc2)[C@@H](F)C1 (mixture of isomers) [Example 32, 2-(4,7-Dichloro-6-(4-(rac-(3R,4R)-1-ethyl-3-fluoropiperidin-4-yl)phenyl)-2H-indazol-2-yl)-2-((R)-6-fluoro-6,7-dihydro-5H-pyrrolo[1,2-c]imidazol-1-yl)-N-(thiazol-2-yl)acetamide] | 4 nM
